Measured values as given in patent US20090099218A1, “SYNTHESIS OF NOVEL TUBULIN POLYMERIZATION INHIBITORS: BENZOYLPHENYLUREA (BPU) SULFUR ANALOGS” (priority 2007, published 2009).

Tests used:
[1] = In vivo dose-finding study; conditions: for toxicity: 20 mg/kg and 30 mg/kg twice per week i.p., 4 weeks, six mice; for remaining animals that lost >15% of their weight: 50 mg/kg thrice per week i.p.; for mice that died in the 3rd week: mouse, in vivo
Description: Both compounds were explored by the i.p. route in cohorts of six mice each, with a duration of treatment of 4 weeks. […] Therefore, 50 mg/kg twice per week was explored. […] Therefore, the dose was escalated to 50 mg/kg thrice per week. In the 6n and 7d groups, respectively, two and one of the mice died in the 3rd week, and three of four and four of five of the remaining animals lost >15% of their weight. Thus, for 28-day efficacy studies following an i.p. route, we selected 50 mg/kg twice a week for both compounds.

Miapaca2 = test: MTT growth inhibition, pancreatic cell line Miapaca2; type: cell-based; conditions: for IC50: Homo sapiens, MIA PaCa-2, MTT assay, 96 h treatment, average of three independent experiments
Description: (§1) Eight of these analogs 6d, 6h, 6n, 6g, 7b, 7d, 8g, and 8h were tested for their cytotoxicity in seven pancreatic cell lines ASPC1, Panc1, Panc203, Panc430, Pane 1005, MiaPaca2, and HS766T using MTT assay. Cells were trypsinized, seeded at 5×10^3 cells/well in 96-well plate and allowed to grow for 24 hours before the treatment with exponential increasing concentrations of drugs in the presence of 10% FBS. After a 96-hours period of treatment, 20 μl of MTT solution (5 mg/ml in PBS) were added to each well, and the plates were then incubated for 3 hours at 37° C. Medium was then replaced with 100 μl of DMSO per well. Plates were shaken and the optical density was measured at 570 nm using a multiwell plate reader (Bio-Rad, Model 550, Bio-Rad Inc., Hercules, Calif.). Each experiment was performed in triplicate for each drug concentration and was carried out independently at least 3 times. The IC50 value was defined as the concentration needed for a 50% reduction in the absorbance calculated based on the survival curves. Response to drug treatment was assessed by standardizing treatment groups to untreated controls. Compounds activity was compared with compound 1.
(§2) Table 2 (Growth Inhibition of Pancreatic Cancer Cell Lines by BPU and BPTU Analogues (IC50) a) compares the cytotoxicity of a series of new derivatives against a panel of seven pancreatic cancer cell lines, as determined by MTT assay. See, Mosmann, T., J. Immunol. Methods 65:55-63 (1983).

Panc203 = test: MTT growth inhibition, pancreatic cell line Panc203; type: cell-based; conditions: Panc203; for IC50: Homo sapiens, MTT assay, 96 h treatment, average of three independent experiments
Description: as §1, §2

tubulin = test: Inhibition of [3H]colchicine binding; conditions: Tubulin 1 μM; [3H]colchicine and inhibitor at 5 μM
MCF-7 cells = test: Apoptosis of MCF-7 cells; type: cell-based; conditions: 48 hours

In the case of `Nc1ccccc1C(=O)NC(=O)Nc1ccc(Sc2ncc(Br)cn2)cc1` [Compound 7d], the toxicity [1] is reported as “not associated with noticeable toxicity”, the “remaining animals that lost >15% of their weight” value [1] is reported as “four of five” and the “mice that died in the 3rd week” value [1] is reported as “one”. For the same compound, the IC50 (Miapaca2) was 95 nM, the “increase in activity compared to 7c” value (Miapaca2; Miapaca2) was 9 fold and the IC50 (Panc203) was 85 nM. For the same compound, the “increase in activity compared to 7c” value (Panc203) was greater than 117 fold.

With `O=C(NC(=O)c1ccccc1[N+](=O)[O-])Nc1ccc(Sc2ncc(Br)cn2)cc1` [Compound 6n, 1-[4-(5-Bromopyrimidin-2-ylsulfanyl)phenyl]-3-(2-nitrobenzoyl)-urea] the toxicity [1] was “not associated with noticeable toxicity”, the “remaining animals that lost >15% of their weight” value [1] was “three of four” and the “mice with a weight loss of 15% by the 4th week” value ([1]; 50 mg/kg twice per week i.p.) was “One of six”. The “mice that died in the 3rd week” value [1] was “two”, the IC50 (Miapaca2) was 86 nM and the “increase in potency over 6m” value (Miapaca2; Mia-paca2) was 8 fold. The IC50 (Panc203) was 700 nM, the “increase in potency over 6m” value (Panc203) was 14 fold and the “colchicine binding (% ± SD), inhibition of [3H]colchicine binding” value (tubulin) was 17 ± 3%. It also gave a rate of apoptosis (MCF-7 cells; 10 nM) of 29.7%, a rate of apoptosis (MCF-7 cells; 30 nM) of 51.2% and a rate of apoptosis (MCF-7 cells; 100 nM) of 53.6%.
